According to patent US9409905B2, “Antibacterial compounds and methods for use” (PTC THERAPEUTICS, INC., priority 2011, dated 2016):
Values after ≈ are worked out from the molar mass of the structure shown.

Columns and labels:
[1] = test system: Acinetobacter baumannii (A. baumannii) BAA747; assay: Antibacterial activity, MIC (Table 4); type: cell-based; details: A. baumannii BAA747, read-out: MIC, BAA747
Procedure, shortened: (§1)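 Broth microdilution; MIC (μg/mL) = lowest concentration with no macroscopically visible growth. Resistant strains: multi-drug resistant clinical isolates.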

[2] = test system: Klebsiella pneumoniae (K. pneumoniae) 35657; assay: Antibacterial activity, MIC (Table 4); type: cell-based; details: K. pneumoniae 35657, read-out: MIC, 35657
Procedure, shortened: as §1

E. coli ELZ4251 = assay: Antibacterial activity, MIC, multi-drug resistant clinical isolate (Table 3); type: cell-based; details: Escherichia coli
Text: The antibacterial activity from a microbroth dilution method may be presented as the minimum inhibitory concentration (MIC in μg/mL). The MIC value is the lowest concentration of drug which prevents macroscopically visible growth under test conditions.
Antibacterial activity of test compounds against E. coli ELZ4000 and E. coli ELZ4251 multi-drug resistant clinical isolates is shown in Table 3.

[3] = test system: Escherichia coli (E. coli) BAS849; assay: Antibacterial activity, microbroth dilution MIC (Table 1); type: cell-based; details: microbroth dilution, super sensitive Gram-negative E. coli BAS849, read-out: MIC, BAS849
Procedure, shortened: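 Potency is reported as minimum inhibitory concentration in μg/mL, determined by broth microdilution as the lowest level of compound that stops growth visible to the eye.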

[4] = test system: Staphylococcus aureus (S. aureus) 29213; assay: as above; type: cell-based; details: microbroth dilution, Gram-positive S. aureus 29213, read-out: MIC, 29213
Procedure, shortened: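 Broth microdilution against S. aureus 29213, E. coli 25922 and hypersensitive E. coli BAS849. MIC in μg/mL is the lowest drug concentration preventing macroscopically visible growth under test conditions.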

E. coli 25922 = assay: as above; type: cell-based, Escherichia coli; details: Escherichia coli; microbroth dilution; control Gram-negative E. coli 25922 strain; read-out: MIC, 25922
Procedure, shortened: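 Broth microdilution; endpoint = no macroscopic growth; value = lowest inhibiting concn, μg/mL.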

[5] = test system: Pseudomonas aeruginosa (P. aeruginosa) 27853; assay: Antibacterial activity, MIC (Table 5); type: cell-based; details: P. aeruginosa 27853, read-out: MIC, 27853
Procedure, shortened: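 Compounds are serially diluted in broth and inoculated with the organism. Growth is then inspected macroscopically, and the lowest concentration showing none is taken as the MIC (μg/mL).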

A. baumannii MXX2240 = assay: Antibacterial activity, MIC, resistant strain (Table 4); type: cell-based; details: Acinetobacter baumannii, MXX2240; resistant A. baumannii MMX2240, multi-drug resistant clinical isolate; read-out: MIC, MMX2240
Procedure, shortened: as §1

K. pneumoniae MXX1232 = assay: as above; type: cell-based; details: Klebsiella pneumoniae, MXX1232; resistant K. pneumoniae MMX1232, multi-drug resistant clinical isolate; read-out: MIC, MMX1232
Procedure, shortened: as §1

E. coli LZ3111 = assay: Antibacterial activity, MIC, quinolone resistant strain (Table 2); type: cell-based; details: Escherichia coli, LZ3111, read-out: MIC LZ3111
Procedure, shortened: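 Strain carries mutations conferring high-level quinolone resistance; tested by microbroth dilution, MIC recorded in μg/mL as lowest concentration preventing visible growth.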

SMILES | MIC [1] [µg/mL] | MIC [2] [µg/mL] | MIC (E. coli ELZ4251) [µg/mL] | MIC [3] [µg/mL] | MIC [4] [µg/mL] | MIC (E. coli 25922) [µg/mL] | MIC [5] [µg/mL] | MIC (A. baumannii MXX2240) [µg/mL] | MIC (K. pneumoniae MXX1232) [µg/mL] | MIC (E. coli LZ3111) [µg/mL]
CCCCNCc1cc2cc(-c3[nH]c(=O)c(C(=O)O)c(O)c3CC)ccc2n1C [Cpd 333, 6-(2-((butylamino)methyl)-1-methyl-1H-indol-5-yl)-5-ethyl-4-hydroxy-2-oxo-1,2-dihydropyridine-3-carboxylic acid] | < 1 | < 1 | 12.5 to 150 (≈ 31.4 to 377 µM) | < 1 | 3.5 to 12.5 (≈ 8.81 to 31.4 µM) | < 1 | 12.5 to 150 (≈ 31.4 to 377 µM) | 1 to 3.5 (≈ 2.52 to 8.81 µM) | 12.5 to 150 (≈ 31.4 to 377 µM) | 3.5 to 12.5 (≈ 8.81 to 31.4 µM)
CCCCCNCc1cc2cc(-c3[nH]c(=O)c(C(=O)O)c(O)c3CC)ccc2n1C [Cpd 334, 5-ethyl-4-hydroxy-6-(1-methyl-2-((pentylamino)methyl)-1H-indol-5-yl)-2-oxo-1,2-dihydropyridine-3-carboxylic acid] | 1 to 3.5 (≈ 2.43 to 8.51 µM) | 1 to 3.5 (≈ 2.43 to 8.51 µM) | 12.5 to 150 (≈ 30.4 to 365 µM) | < 1 | 12.5 to 150 (≈ 30.4 to 365 µM) | < 1 | 12.5 to 150 (≈ 30.4 to 365 µM) | 12.5 to 150 (≈ 30.4 to 365 µM) | 12.5 to 150 (≈ 30.4 to 365 µM) | 12.5 to 150 (≈ 30.4 to 365 µM)
CCCCCCNCc1cc2cc(-c3[nH]c(=O)c(C(=O)O)c(O)c3CC)ccc2n1C [Cpd 335, 5-ethyl-6-(2-((hexylamino)methyl)-1-methyl-1H-indol-5-yl)-4-hydroxy-2-oxo-1,2-dihydropyridine-3-carboxylic acid] | 3.5 to 12.5 (≈ 8.23 to 29.4 µM) | 1 to 3.5 (≈ 2.35 to 8.23 µM) | 12.5 to 150 (≈ 29.4 to 353 µM) | < 1 | 1 to 3.5 (≈ 2.35 to 8.23 µM) | < 1 | 12.5 to 150 (≈ 29.4 to 353 µM) | 12.5 to 150 (≈ 29.4 to 353 µM) | 12.5 to 150 (≈ 29.4 to 353 µM) | 1 to 3.5 (≈ 2.35 to 8.23 µM)
CCCCCCCNCc1cc2cc(-c3[nH]c(=O)c(C(=O)O)c(O)c3CC)ccc2n1C [Cpd 336, 5-ethyl-6-(2-((heptylamino)methyl)-1-methyl-1H-indol-5-yl)-4-hydroxy-2-oxo-1,2-dihydropyridine-3-carboxylic acid] | 12.5 to 150 (≈ 28.4 to 341 µM) | 12.5 to 150 (≈ 28.4 to 341 µM) | 12.5 to 150 (≈ 28.4 to 341 µM) | < 1 | < 1 | 3.5 to 12.5 (≈ 7.96 to 28.4 µM) | 12.5 to 150 (≈ 28.4 to 341 µM) | 12.5 to 150 (≈ 28.4 to 341 µM) | 12.5 to 150 (≈ 28.4 to 341 µM) | < 1
CCCCCCCCNCc1cc2cc(-c3[nH]c(=O)c(C(=O)O)c(O)c3CC)ccc2n1C [Cpd 337, 5-ethyl-4-hydroxy-6-(1-methyl-2-((octylamino)methyl)-1H-indol-5-yl)-2-oxo-1,2-dihydropyridine-3-carboxylic acid] | 12.5 to 150 (≈ 27.6 to 331 µM) | 12.5 to 150 (≈ 27.6 to 331 µM) | 12.5 to 150 (≈ 27.6 to 331 µM) | < 1 | 1 to 3.5 (≈ 2.2 to 7.72 µM) | 12.5 to 150 (≈ 27.6 to 331 µM) | 12.5 to 150 (≈ 27.6 to 331 µM) | 12.5 to 150 (≈ 27.6 to 331 µM) | 12.5 to 150 (≈ 27.6 to 331 µM) | 3.5 to 12.5 (≈ 7.72 to 27.6 µM)
CCCCCCCCCNCc1cc2cc(-c3[nH]c(=O)c(C(=O)O)c(O)c3CC)ccc2n1C [Cpd 338, 5-ethyl-4-hydroxy-6-(1-methyl-2-((nonylamino)methyl)-1H-indol-5-yl)-2-oxo-1,2-dihydropyridine-3-carboxylic acid] | 12.5 to 150 (≈ 26.7 to 321 µM) | 12.5 to 150 (≈ 26.7 to 321 µM) | 12.5 to 150 (≈ 26.7 to 321 µM) | 1 to 3.5 (≈ 2.14 to 7.48 µM) | 3.5 to 12.5 (≈ 7.48 to 26.7 µM) | 12.5 to 150 (≈ 26.7 to 321 µM) | 12.5 to 150 (≈ 26.7 to 321 µM) | 12.5 to 150 (≈ 26.7 to 321 µM) | 12.5 to 150 (≈ 26.7 to 321 µM) | 12.5 to 150 (≈ 26.7 to 321 µM)
CCc1c(-c2ccc3c(c2)c(C#N)c(OC)n3C)[nH]c(=O)c(C(=O)O)c1O [Cpd 362, 6-(3-cyano-2-methoxy-1-methyl-1H-indol-5-yl)-5-ethyl-4-hydroxy-2-oxo-1,2-dihydropyridine-3-carboxylic acid] | 12.5 to 150 (≈ 34 to 408 µM) | 12.5 to 150 (≈ 34 to 408 µM) | 12.5 to 150 (≈ 34 to 408 µM) | 1 to 3.5 (≈ 2.72 to 9.53 µM) | 3.5 to 12.5 (≈ 9.53 to 34 µM) | 12.5 to 150 (≈ 34 to 408 µM) | 12.5 to 150 (≈ 34 to 408 µM) | 12.5 to 150 (≈ 34 to 408 µM) | 12.5 to 150 (≈ 34 to 408 µM) | 12.5 to 150 (≈ 34 to 408 µM)
CCc1cc(C(=O)O)c(=O)[nH]c1-c1ccc2occc2c1 [Cpd 364, 6-(benzofuran-5-yl)-5-ethyl-2-oxo-1,2-dihydropyridine-3-carboxylic acid] | 12.5 to 150 (≈ 44.1 to 530 µM) | 12.5 to 150 (≈ 44.1 to 530 µM) | 12.5 to 150 (≈ 44.1 to 530 µM) | 1 to 3.5 (≈ 3.53 to 12.4 µM) | 12.5 to 150 (≈ 44.1 to 530 µM) | 12.5 to 150 (≈ 44.1 to 530 µM) | 12.5 to 150 (≈ 44.1 to 530 µM) | 12.5 to 150 (≈ 44.1 to 530 µM) | 12.5 to 150 (≈ 44.1 to 530 µM) | 12.5 to 150 (≈ 44.1 to 530 µM)
CCc1c(-c2ccc3occc3c2)[nH]c(=O)c(C(=O)O)c1O [Cpd 365, 6-(benzofuran-5-yl)-5-ethyl-4-hydroxy-2-oxo-1,2-dihydropyridine-3-carboxylic acid] | 12.5 to 150 (≈ 41.8 to 501 µM) | 12.5 to 150 (≈ 41.8 to 501 µM) | 3.5 to 12.5 (≈ 11.7 to 41.8 µM) | < 1 | 3.5 to 12.5 (≈ 11.7 to 41.8 µM) | 12.5 to 150 (≈ 41.8 to 501 µM) | 12.5 to 150 (≈ 41.8 to 501 µM) | 1 to 3.5 (≈ 3.34 to 11.7 µM) | 12.5 to 150 (≈ 41.8 to 501 µM) | 3.5 to 12.5 (≈ 11.7 to 41.8 µM)
CCc1c(-c2ccc3[nH]c(-c4ccc(C#N)cc4)cc3c2)[nH]c(=O)c(C(=O)O)c1O [Cpd 453, 6-(2-(4-cyanophenyl)-1H-indol-5-yl)-5-ethyl-4-hydroxy-2-oxo-1,2-dihydropyridine-3-carboxylic acid] | 12.5 to 150 (≈ 31.3 to 376 µM) | 12.5 to 150 (≈ 31.3 to 376 µM) |  | < 1 | 1 to 3.5 (≈ 2.5 to 8.76 µM) | 12.5 to 150 (≈ 31.3 to 376 µM) | 12.5 to 150 (≈ 31.3 to 376 µM) | 12.5 to 150 (≈ 31.3 to 376 µM) | 12.5 to 150 (≈ 31.3 to 376 µM) | 12.5 to 150 (≈ 31.3 to 376 µM)
CCc1c(-c2ccc3[nH]c(-c4ccccc4)cc3c2)[nH]c(=O)c(C(=O)O)c1O [Cpd 454, 5-ethyl-4-hydroxy-2-oxo-6-(2-phenyl-1H-indol-5-yl)-1,2-dihydropyridine-3-carboxylic acid] | 12.5 to 150 (≈ 33.4 to 401 µM) | 12.5 to 150 (≈ 33.4 to 401 µM) |  | < 1 | < 1 | 12.5 to 150 (≈ 33.4 to 401 µM) | 12.5 to 150 (≈ 33.4 to 401 µM) | 12.5 to 150 (≈ 33.4 to 401 µM) | 12.5 to 150 (≈ 33.4 to 401 µM) | 12.5 to 150 (≈ 33.4 to 401 µM)
CCc1c(-c2ccc3[nH]c(-c4ccc(C(F)(F)F)cc4)cc3c2)[nH]c(=O)c(C(=O)O)c1O [Cpd 455, 5-ethyl-4-hydroxy-2-oxo-6-(2-(4-(trifluoromethyl)phenyl)-1H-indol-5-yl)-1,2-dihydropyridine-3-carboxylic acid] | 12.5 to 150 (≈ 28.3 to 339 µM) | 12.5 to 150 (≈ 28.3 to 339 µM) |  | < 1 | 3.5 to 12.5 (≈ 7.91 to 28.3 µM) | 12.5 to 150 (≈ 28.3 to 339 µM) | 12.5 to 150 (≈ 28.3 to 339 µM) | 12.5 to 150 (≈ 28.3 to 339 µM) | 12.5 to 150 (≈ 28.3 to 339 µM) | 12.5 to 150 (≈ 28.3 to 339 µM)
